Measured values as given in patent publication US10519148B2, “Acrylic acid derivative, preparation method and use in medicine thereof” (Zhejiang Hisun Pharmaceutical Co., Ltd., priority 2015, dated 2019).

Tested on: MCF-7 carcinoma xenografts
Assay: Tumor growth inhibition in SCID mice bearing MCF-7 carcinoma xenografts
Format: in vivo
Conditions: for TGI (%) Day 4: Day 4, MCF-7 tumor bearing SCID mice; for TGI (%) Day 7: Day 7, MCF-7 tumor bearing SCID mice; for TGI (%) Day 11: Day 11, MCF-7 tumor bearing SCID mice; for TGI (%) Day 14: Day 14, MCF-7 tumor bearing SCID mice; for TGI (%) Day 18: Day 18, MCF-7 tumor bearing SCID mice; for TGI (%) Day 21: Day 21, MCF-7 tumor bearing SCID mice; for effect on tumor growth inhibition in human breast cancer MCF-7 bearing mice (in words): doses of 30 mg/kg and 50 mg/kg, within 21 days
Method: 1. Purpose of the Experiment
This test was used to evaluate the inhibitory effect of the test compounds, which were orally administered daily for 21 days, on the growth of transplanted tumor in MCF-7 tumor-bearing SCID mice.
2. Preparation of the Test Substance
Solvent: 20% PEG400, 80% deionized water;
Preparation of the test compounds: an appropriate amount of the test compounds were weighed, dissolved in PEG400 (20%), and then 80% amount of the sterilized deionized water was added, shocked evenly. The test compounds were freshly prepared daily before administration.
Varieties and strains: SCID mice, SPF, female, 7 to 9 weeks old (16 to 22 grams), 100 mice, purchased from Beijing Huafu kang Biotechnology Co., Ltd., 100 mice with good health were used for the experiment, with the environment adaption time of 5 to 7 days.
4. MCF-7 Tumor Cell Culture
MCF-7 cells were cultured in RPMI1640 medium containing 10% fetal bovine serum, cultured in 37° C., 5% CO2 incubator. Cells in logarithmic phase were taken before inoculating, digested with 0.25% trypsin, and then the cells were washed with PBS, resuspended in medium without serum and counted. The cell concentration was adjusted to 7.5×10^7 cells/mL (1:1 Matrigel, Extracellular Matrix Proteins, 356234, BD).
5. Animal Inoculation and Grouping
Each mouse was inoculated subcutaneously in the right axilla with 0.2 mL cell suspension (1.5×10^7 cells/mouse) under aseptic conditions. Estrogen was administrated subcutaneously after inoculation. When the tumor grows to volume of about 150-250 mm^3, the mice with similar tumor volume and good tumor shape were selected (shape to be a single spherical as much as possible, no irregular shape or multiple tumors together), 10 mice per group.
6. Animal Administration and Observation
The formation of tumor in the inoculated part of each group of animals was observed. The long diameter (Y) and the short diameter (X) of the tumor nodules were measured with a vernier caliper twice a week and calculated according to the following formula: The volume of tumor nodules (V): V=(X^2Y)/2.
Evaluation index of antitumor activity: tumor growth inhibition rate TGI (%), relative tumor proliferation rate T/C (%). • Tumor growth inhibition rate TGI (%): TGI (%)=(Vc−Vt)/Vc×100. Where Vc is the tumor volume of the model control group and Vt is the tumor volume of the compound group.
Relative tumor volume (RTV): RTV=Vn/V0. Where V0 is the tumor volume just before the first time administered, and Vn is the tumor volume at the time of measurement.
Relative tumor proliferation rate: T/C (%): T/C (%)=TRTV/CRTV×100. Where, TRTV was RTV of the treatment group and CRTV was RTV of negative control group.

C[C@@H]1Cc2c([nH]c3ccccc23)[C@@H](c2c(F)cc(/C=C/C(=O)O)cc2F)N1CC1(F)CC1 [Example 1, (E)-3-(3,5-difluoro-4-((1R,3R)-2-((1-fluorocyclopropyl)methyl)-3-methyl-2,3,4,9-tetrahydro-1H-pyrido[3,4-b]indol-1-yl)phenyl)acrylic acid]
TGI (%) Day 4 (30 mg/kg po qd): 12.3% | TGI (%) Day 7 (30 mg/kg po qd): 24.4% | TGI (%) Day 11 (30 mg/kg po qd): 34.5% | TGI (%) Day 14 (30 mg/kg po qd): 52.7% | TGI (%) Day 18 (30 mg/kg po qd): 65.7% | TGI (%) Day 21 (30 mg/kg po qd): 76.7% | TGI (%) Day 4 (50 mg/kg po qd): 16.9% | TGI (%) Day 7 (50 mg/kg po qd): 26.5% | TGI (%) Day 11 (50 mg/kg po qd): 38.8% | TGI (%) Day 14 (50 mg/kg po qd): 54.2% | TGI (%) Day 18 (50 mg/kg po qd): 66.9% | TGI (%) Day 21 (50 mg/kg po qd): 78.8% | effect on tumor growth inhibition in human breast cancer MCF-7 bearing mice (in words): significant effect on tumor growth inhibition

C[C@@H]1Cc2c([nH]c3cccc(F)c23)[C@@H](c2c(F)cc(/C=C/C(=O)O)cc2F)N1CC1(F)CC1 [Example 12, (E)-3-(3,5-difluoro-4-((1R,3R)-5-fluoro-2-((1-fluorocyclopropyl)methyl)-3-methyl-2,3,4,9-tetrahydro-1H-pyrido[3,4-b]indol-1-yl)phenyl)acrylic acid]
TGI (%) Day 4 (30 mg/kg po qd): 12.1% | TGI (%) Day 7 (30 mg/kg po qd): 25.9% | TGI (%) Day 11 (30 mg/kg po qd): 41.5% | TGI (%) Day 14 (30 mg/kg po qd): 53.6% | TGI (%) Day 18 (30 mg/kg po qd): 62.0% | TGI (%) Day 21 (30 mg/kg po qd): 73.4% | TGI (%) Day 4 (50 mg/kg po qd): 12.4% | TGI (%) Day 7 (50 mg/kg po qd): 25.4% | TGI (%) Day 11 (50 mg/kg po qd): 43.8% | TGI (%) Day 14 (50 mg/kg po qd): 59.6% | TGI (%) Day 18 (50 mg/kg po qd): 69.8% | TGI (%) Day 21 (50 mg/kg po qd): 79.4% | effect on tumor growth inhibition in human breast cancer MCF-7 bearing mice (in words): significant effect on tumor growth inhibition
